Biological target: P. falciparum apicoplast DNA polymerase (Pf-apPOL) (Plasmodium falciparum, UniProt Q8ILY1)
Assay: Fluorescence-based high-throughput DNA polymerase assay (molecular beacon), primary screen and dose-response;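 on % inhibition ApPOL 90': test concentration in µM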;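 on % inhibition apPOL 180': test concentration in µM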
Assay type: biochemical
Conditions: for DNA Pol: 90 min, 10 µM
Procedure, shortened: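 Single-point screening used 10 µM compound with 20 nM polymerase, 20 nM hairpin substrate and 6 µM dNTPs for 90 min at 25 °C. Confirmatory titrations (2.5–80 µM) followed fluorescence at three times, and IC50 was derived from a fit including a cooperativity term n.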

P. falciparum apicoplast DNA polymerase (Pf-apPOL), sequence (Q8ILY1 entry or part of it): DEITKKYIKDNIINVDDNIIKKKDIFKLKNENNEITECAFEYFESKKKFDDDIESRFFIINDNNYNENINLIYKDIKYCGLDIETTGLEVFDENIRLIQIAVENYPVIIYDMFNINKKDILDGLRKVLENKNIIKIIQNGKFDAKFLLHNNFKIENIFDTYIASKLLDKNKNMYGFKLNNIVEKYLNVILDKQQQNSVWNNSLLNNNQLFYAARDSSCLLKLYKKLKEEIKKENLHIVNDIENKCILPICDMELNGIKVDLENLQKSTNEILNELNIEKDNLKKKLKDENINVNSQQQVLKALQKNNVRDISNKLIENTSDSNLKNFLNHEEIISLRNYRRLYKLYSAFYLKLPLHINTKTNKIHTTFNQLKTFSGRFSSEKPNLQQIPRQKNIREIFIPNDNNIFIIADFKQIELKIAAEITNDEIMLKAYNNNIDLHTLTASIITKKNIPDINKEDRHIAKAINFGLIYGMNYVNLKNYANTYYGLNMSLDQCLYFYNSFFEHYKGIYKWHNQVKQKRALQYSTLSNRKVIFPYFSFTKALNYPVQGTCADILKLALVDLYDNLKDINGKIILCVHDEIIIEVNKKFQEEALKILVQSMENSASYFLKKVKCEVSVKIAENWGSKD

Compound: Cc1cccc(NC(=O)Cn2ccc3c(=O)[nH]ccc32)c1C [Molecule 11, O=C(Cn1ccc2c1cc[nH]c2=O)Nc1cccc(c1C)C]
- DNA Pol ('DNA Pol' of the 186 hits list (screen value)): 54
- % inhibition Apo pol 10' (DRC-1, conc 2.5): 3.616%
- % inhibition Apo pol 10' (DRC-1, conc 5): 26.2157%
- % inhibition Apo pol 10' (DRC-1, conc 10): 64.035%
- % inhibition Apo pol 10' (DRC-1, conc 20): 84.2642%
- % inhibition Apo pol 10' (DRC-1, conc 40): 89.6589%
- % inhibition Apo pol 10' (DRC-1, conc 80): 84.1772%
- % inhibition Apol 90' (DRC-1, conc 2.5): 0.4643%
- % inhibition Apol 90' (DRC-1, conc 5): 14.6206%
- % inhibition Apol 90' (DRC-1, conc 10): 51.1257%
- % inhibition Apol 90' (DRC-1, conc 20): 80.5216%
- % inhibition Apol 90' (DRC-1, conc 40): 91.1147%
- % inhibition Apol 90' (DRC-1, conc 80): 90.9413%
- % inhibition apPOL 180' (DRC-1, conc 2.5): -2.306%
- % inhibition apPOL 180' (DRC-1, conc 5): 3.486%
- % inhibition apPOL 180' (DRC-1, conc 10): 34.4928%
- % inhibition apPOL 180' (DRC-1, conc 20): 70.7317%
- % inhibition apPOL 180' (DRC-1, conc 40): 89.3869%
- % inhibition apPOL 180' (DRC-1, conc 80): 93.0322%
- % inhibition Apo pol 5' (DRC-2, conc 2.5): 1.64%
- % inhibition Apo pol 5' (DRC-2, conc 5): 23%
- % inhibition Apo pol 5' (DRC-2, conc 10): 46%
- % inhibition Apo pol 5' (DRC-2, conc 20): 49%
- % inhibition Apo pol 5' (DRC-2, conc 40): 47%
- % inhibition Apo pol 5' (DRC-2, conc 80): 39%
- % inhibition Apol 40' (DRC-2, conc 2.5): 0.556%
- % inhibition Apol 40' (DRC-2, conc 5): 28%
- % inhibition Apol 40' (DRC-2, conc 10): 58%
- % inhibition Apol 40' (DRC-2, conc 20): 67%
- % inhibition Apol 40' (DRC-2, conc 40): 69%
- % inhibition Apol 40' (DRC-2, conc 80): 66%
- % inhibition Apol 40' (DRC-2, concentration 10): 58%
- % inhibition Apol 40' (DRC-2, concentration 40): 69%
- % inhibition ApPOL 90' (DRC-2, conc 2.5): -1.29%
- % inhibition ApPOL 90' (DRC-2, conc 5): 24%
- % inhibition ApPOL 90' (DRC-2, conc 10): 58%
- % inhibition ApPOL 90' (DRC-2, conc 20): 70%
- % inhibition ApPOL 90' (DRC-2, conc 40): 73%
- % inhibition ApPOL 90' (DRC-2, conc 80): 72%
- % inhibition ApPOL 90' (DRC-2, concentration 10): 58%
- % inhibition apPOL 180' (DRC-2, conc 2.5): -8%
- % inhibition apPOL 180' (DRC-2, conc 5): 13%
- % inhibition apPOL 180' (DRC-2, conc 10): 50%
- % inhibition apPOL 180' (DRC-2, conc 20): 69%
- % inhibition apPOL 180' (DRC-2, conc 40): 77%
- % inhibition apPOL 180' (DRC-2, conc 80): 77%
- % inhibition apPOL 180' (DRC-2, concentration 20): 69%
- % inhibition apPOL 180' (DRC-2, concentration 40): 77%
- % inhibition apPOL 180' (DRC-2, concentration 80): 77%
- DNA Pol (primary screen value, "DNA Pol"): 54

Compound: COc1ccc(NC(=O)Cn2ccc3c(=O)[nH]ccc32)cc1 [Molecule 13, COc1ccc(cc1)NC(=O)Cn1ccc2c1cc[nH]c2=O]
- % inhibition Apo pol 10' (DRC-1, concentration 2.5): 9.9864%
- % inhibition Apo pol 10' (DRC-1, concentration 5): 32.1099%
- % inhibition Apo pol 10' (DRC-1, concentration 10): 65.6259%
- % inhibition Apo pol 10' (DRC-1, concentration 20): 81.849%
- % inhibition Apo pol 10' (DRC-1, concentration 40): 89.1437%
- % inhibition Apo pol 10' (DRC-1, concentration 80): 82.2361%
- % inhibition Apol 90' (DRC-1, concentration 2.5): 1.393%
- % inhibition Apol 90' (DRC-1, concentration 5): 18.8368%
- % inhibition Apol 90' (DRC-1, concentration 10): 50.5955%
- % inhibition Apol 90' (DRC-1, concentration 20): 73.6159%
- % inhibition Apol 90' (DRC-1, concentration 40): 87.1809%
- % inhibition Apol 90' (DRC-1, concentration 80): 85.204%
- % inhibition apPOL 180' (DRC-1, concentration 2.5): -3.687%
- % inhibition apPOL 180' (DRC-1, concentration 5): 7.549%
- % inhibition apPOL 180' (DRC-1, concentration 10): 35.4263%
- % inhibition apPOL 180' (DRC-1, concentration 20): 60.6819%
- % inhibition apPOL 180' (DRC-1, concentration 40): 82.9961%
- % inhibition apPOL 180' (DRC-1, concentration 80): 83.4711%
- % inhibition Apo pol 5' (DRC-2, concentration 2.5): 7%
- % inhibition Apo pol 5' (DRC-2, concentration 5): 18%
- % inhibition Apo pol 5' (DRC-2, concentration 10): 37%
- % inhibition Apo pol 5' (DRC-2, concentration 20): 47%
- % inhibition Apo pol 5' (DRC-2, concentration 40): 45%
- % inhibition Apo pol 5' (DRC-2, concentration 80): 40%
- % inhibition Apol 40' (DRC-2, concentration 2.5): 5.45%
- % inhibition Apol 40' (DRC-2, concentration 5): 19%
- % inhibition Apol 40' (DRC-2, concentration 10): 41%
- % inhibition Apol 40' (DRC-2, concentration 20): 65%
- % inhibition Apol 40' (DRC-2, concentration 40): 67%
- % inhibition Apol 40' (DRC-2, concentration 80): 65%
- % inhibition ApPOL 90' (DRC-2, concentration 2.5): 4%
- % inhibition ApPOL 90' (DRC-2, concentration 5): 16%
- % inhibition ApPOL 90' (DRC-2, concentration 10): 38%
- % inhibition ApPOL 90' (DRC-2, concentration 20): 66%
- % inhibition ApPOL 90' (DRC-2, concentration 40): 72%
- % inhibition ApPOL 90' (DRC-2, concentration 80): 70%
- % inhibition apPOL 180' (DRC-2, concentration 2.5): -2%
- % inhibition apPOL 180' (DRC-2, concentration 5): 7%
- % inhibition apPOL 180' (DRC-2, concentration 10): 27%
- % inhibition apPOL 180' (DRC-2, concentration 20): 63%
- % inhibition apPOL 180' (DRC-2, concentration 40): 74%
- % inhibition apPOL 180' (DRC-2, concentration 80): 76%
- % inhibition Apo pol 5' (conc. 2.5, DRC-2): 7%
- % inhibition apPOL 180' (conc. 5, DRC-2): 7%
- % inhibition Apol 40' (conc. 20, DRC-2): 65%
- % inhibition Apol 40' (conc. 80, DRC-2): 65%
- DNA Pol (primary screen value by plate and well): 53
- DNA Pol (primary screen value of the 186 hits, unit not given): 53
